According to patent US7632811B2, “Analogs of parathyroid hormone” (Societe de Conseils de Recherches et D'Applications …, priority 1995, dated 2009):
Non-standard residues stand in square brackets, D forms with d. Residues, ends and D or L forms follow the SMILES beside them. hArg = N=C(N)NCCCC[C@H](N)C(=O)O; Cha = N[C@@H](CC1CCCCC1)C(=O)O; Ac6c = NC1(C(=O)O)CCCCC1; Nle = CCCC[C@H](N)C(=O)O; Dap = NC[C@H](N)C(=O)O; Aib = CC(C)(N)C(=O)O

biological target: T1, PTH receptor present on SaOS-2 (human osteosarcoma cells) (Homo sapiens, UniProt Q03431); experiment: Binding to PTH receptor on SaOS-2 cells (competition with mono-125I-[Nle8,18,Tyr34(3-125I)]bPTH(1-34)NH2); conditions: Table I, 2 hrs at room temperature, read-out: Kd (half maximal inhibition of binding of mono-125I-[Nle8,18, Tyr34(3-125I)]bPTH(1-34)NH2)
T1 construct: host or cells: SaOS-2 human osteosarcoma cells (intact, confluent monolayers)
T1 sequence (Q03431 27-593): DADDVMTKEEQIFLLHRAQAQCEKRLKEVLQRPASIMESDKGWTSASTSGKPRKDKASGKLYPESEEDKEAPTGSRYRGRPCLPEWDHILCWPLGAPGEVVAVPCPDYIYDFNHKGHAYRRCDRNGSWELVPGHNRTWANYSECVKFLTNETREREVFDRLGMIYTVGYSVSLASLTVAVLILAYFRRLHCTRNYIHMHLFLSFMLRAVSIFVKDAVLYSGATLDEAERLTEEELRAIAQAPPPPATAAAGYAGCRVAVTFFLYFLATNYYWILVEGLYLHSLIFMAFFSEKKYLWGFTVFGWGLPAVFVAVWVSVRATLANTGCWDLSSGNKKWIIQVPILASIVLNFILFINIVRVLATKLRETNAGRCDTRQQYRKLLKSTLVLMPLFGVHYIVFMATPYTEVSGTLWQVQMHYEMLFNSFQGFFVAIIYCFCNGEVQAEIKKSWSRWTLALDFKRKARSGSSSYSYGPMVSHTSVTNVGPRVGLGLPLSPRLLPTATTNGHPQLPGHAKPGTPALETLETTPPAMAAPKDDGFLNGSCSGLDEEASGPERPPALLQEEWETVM
How it was run: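 Confluent SaOS-2 cells in 5% FBS RPMI were incubated 2 h at room temperature with 10×10^4 cpm mono-125I-[Nle8,18,Tyr34(3-125I)]bPTH(1-34)NH2 plus competing peptide at 10^−11 to 10^−4 M. After washing, cell-bound radioactivity was counted; Kd taken as half-maximal inhibition of tracer binding.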

Kd [nM] | SMILES
4 | CC[C@H](C)[C@H](NC(=O)[C@H](CCC(=O)O)NC(=O)[C@H](CO)NC(=O)[C@@H](NC(=O)[C@@H](N)CO)C(C)C)C(=O)N[C@@H](CCC(N)=O)C(=O)N[C@@H](CC1CCCCC1)C(=O)N[C@@H](CCSC)C(=O)N[C@@H](Cc1c[nH]cn1)C(=O)N[C@@H](CC(N)=O)C(=O)N[C@@H](CC1CCCCC1)C(=O)NCC(=O)N[C@@H](CCCCN)C(=O)N[C@@H](Cc1c[nH]cn1)C(=O)N[C@@H](CC(C)C)C(=O)NC(C)(C)C(=O)N[C@@H](CO)C(=O)N[C@@H](CCSC)C(=O)N[C@@H](CCC(=O)O)C(=O)N[C@@H](CCCNC(=N)N)C(=O)N[C@H](C(=O)N[C@@H](CCC(=O)O)C(=O)N[C@@H](Cc1c[nH]c2ccccc12)C(=O)N[C@@H](CC(C)C)C(=O)N[C@@H](CCCNC(=N)N)C(=O)N[C@@H](CCCCN)C(=O)N[C@@H](CCCCN)C(=O)N[C@@H](CC(C)C)C(=O)N[C@@H](CCC(N)=O)C(=O)N[C@@H](CC(=O)O)C(=O)N[C@H](C(=O)N[C@@H](Cc1c[nH]cn1)C(=O)N[C@@H](CC(N)=O)C(=O)N[C@@H](Cc1ccccc1)C(N)=O)C(C)C)C(C)C [[Cha^7,11, Aib^16]hPTH(1-34)NH2] (H-SVSEIQ[Cha]MHN[Cha]GKHL[Aib]SMERVEWLRKKLQDVHNF-NH2)
150 | CCCC[C@H](NC(=O)[C@H](CO)NC(=O)[C@H](CC(N)=O)NC(=O)[C@H](CC(C)C)NC(=O)[C@H](Cc1c[nH]cn1)NC(=O)[C@H](CCCCN)NC(=O)CNC(=O)[C@H](CC(C)C)NC(=O)[C@H](CC(N)=O)NC(=O)[C@H](Cc1c[nH]cn1)NC(=O)[C@H](CCCC)NC(=O)[C@H](CC(C)C)NC(=O)[C@H](CCC(N)=O)NC(=O)[C@@H](NC(=O)[C@H](CCC(=O)O)NC(=O)[C@H](CO)NC(=O)[C@@H](NC(=O)[C@@H](N)CN)C(C)C)[C@@H](C)CC)C(=O)N[C@@H](CCC(=O)O)C(=O)N[C@@H](CCCNC(=N)N)C(=O)N[C@H](C(=O)N[C@@H](CCC(=O)O)C(=O)N[C@@H](Cc1c[nH]c2ccccc12)C(=O)N[C@@H](CC(C)C)C(=O)N[C@@H](CCCNC(=N)N)C(=O)N[C@@H](CCCCN)C(=O)N[C@@H](CCCCN)C(=O)N[C@@H](CC(C)C)C(=O)N[C@@H](CCC(N)=O)C(=O)N[C@@H](CC(=O)O)C(=O)N[C@H](C(=O)N[C@@H](Cc1c[nH]cn1)C(=O)N[C@@H](CC(N)=O)C(=O)N[C@@H](Cc1ccc(O)cc1)C(N)=O)C(C)C)C(C)C [[Dap,Nle^8,18, Tyr^34]hPTH(1-34)NH2] (H-[Dap]VSEIQL[Nle]HNLGKHLNS[Nle]ERVEWLRKKLQDVHNY-NH2)
7 | CC[C@H](C)[C@H](NC(=O)[C@H](CCC(=O)O)NC(=O)[C@H](CO)NC(=O)[C@@H](NC(=O)[C@@H](N)CO)C(C)C)C(=O)N[C@@H](CCC(N)=O)C(=O)N[C@@H](CC(C)C)C(=O)N[C@@H](CCSC)C(=O)N[C@@H](Cc1c[nH]cn1)C(=O)N[C@@H](CC(N)=O)C(=O)N[C@@H](CC(C)C)C(=O)NCC(=O)N[C@@H](CCCCN)C(=O)N[C@@H](Cc1c[nH]cn1)C(=O)N[C@@H](CC(C)C)C(=O)N[C@@H](CC(N)=O)C(=O)N[C@@H](CO)C(=O)N[C@@H](CCSC)C(=O)N[C@@H](CCC(=O)O)C(=O)N[C@@H](CCCNC(=N)N)C(=O)N[C@H](C(=O)N[C@@H](CCC(=O)O)C(=O)N[C@@H](Cc1c[nH]c2ccccc12)C(=O)N[C@@H](CC(C)C)C(=O)N[C@@H](CCCNC(=N)N)C(=O)N[C@@H](CCCCN)C(=O)N[C@@H](CCCCN)C(=O)N[C@@H](CC(C)C)C(=O)N[C@@H](CCC(N)=O)C(=O)N[C@@H](CC(=O)O)C(=O)N[C@H](C(=O)N[C@@H](Cc1c[nH]cn1)C(=O)N[C@@H](CC(N)=O)C(=O)NC(C)(C)C(N)=O)C(C)C)C(C)C [[Aib^34]hPTH(1-34)NH2]
7 | CC[C@H](C)[C@H](NC(=O)[C@H](CCC(=O)O)NC(=O)[C@H](CO)NC(=O)[C@@H](NC(=O)[C@@H](N)CO)C(C)C)C(=O)N[C@@H](CCC(N)=O)C(=O)N[C@@H](CC(C)C)C(=O)N[C@@H](CCSC)C(=O)N[C@@H](Cc1c[nH]cn1)C(=O)N[C@@H](CC(N)=O)C(=O)N[C@@H](CC(C)C)C(=O)NCC(=O)N[C@@H](CCCCN)C(=O)N[C@@H](Cc1c[nH]cn1)C(=O)N[C@@H](CC(C)C)C(=O)N[C@@H](CC(N)=O)C(=O)N[C@@H](CO)C(=O)N[C@@H](CCSC)C(=O)N[C@@H](CCC(=O)O)C(=O)N[C@@H](CCCNC(=N)N)C(=O)N[C@H](C(=O)N[C@@H](CCC(=O)O)C(=O)N[C@@H](Cc1c[nH]c2ccccc12)C(=O)N[C@@H](CC(C)C)C(=O)N[C@@H](CCCNC(=N)N)C(=O)N[C@@H](CCCCN)C(=O)N[C@@H](CCCCNC(=N)N)C(=O)N[C@@H](CC(C)C)C(=O)N[C@@H](CCC(N)=O)C(=O)N[C@@H](CC(=O)O)C(=O)N[C@H](C(=O)N[C@@H](Cc1c[nH]cn1)C(=O)N[C@@H](CC(N)=O)C(=O)N[C@@H](Cc1ccccc1)C(N)=O)C(C)C)C(C)C [[hArg^27]hPTH(1-34)NH2] (H-SVSEIQLMHNLGKHLNSMERVEWLRK[hArg]LQDVHNF-NH2)

same assay, conditions: Table II, 2 hrs at room temperature, read-out: Kd (half maximal inhibition of binding of mono-125I-[Nle8,18, Tyr34(3-125I)]bPTH(1-34)NH2)

Kd [nM] | SMILES
6 | CC[C@H](C)[C@H](NC(=O)[C@H](CO)NC(=O)[C@H](CCCCN)NC(=O)CNC(=O)[C@H](CCCCN)NC(=O)[C@H](CC(=O)O)NC(=O)[C@H](Cc1c[nH]cn1)NC(=O)[C@H](CC(C)C)NC(=O)[C@H](CC(C)C)NC(=O)[C@H](CCC(N)=O)NC(=O)[C@H](Cc1c[nH]cn1)NC(=O)[C@H](CCC(=O)O)NC(=O)[C@H](CO)NC(=O)[C@@H](NC(=O)[C@H](C)N)C(C)C)C(=O)N[C@@H](CCC(N)=O)C(=O)N[C@@H](CC(=O)O)C(=O)N[C@@H](CC(C)C)C(=O)N[C@@H](CCCNC(=N)N)C(=O)N[C@@H](CCCNC(=N)N)C(=O)N[C@@H](CCCNC(=N)N)C(=O)N[C@@H](CCC(=O)O)C(=O)N[C@@H](CC(C)C)C(=O)NC1(C(=O)N[C@@H](CCC(=O)O)C(=O)N[C@@H](CCCCN)C(=O)N[C@@H](CC(C)C)C(=O)N[C@@H](CC(C)C)C(=O)NC(C)(C)C(=O)N[C@@H](CCCCN)C(=O)N[C@@H](CC(C)C)C(=O)N[C@@H](Cc2c[nH]cn2)C(=O)N[C@H](C(=O)N[C@@H](C)C(N)=O)[C@@H](C)O)CCCCC1 [[Glu^22,25, Leu^23,28,31, Ahc^24, Lys^26,30, Aib^29]hPTHrP(1-34)NH2] (H-AVSEHQLLHDKGKSIQDLRRREL[Ac6c]EKLL[Aib]KLHTA-NH2; N-terminus assumed)
60 | CC[C@H](C)[C@H](NC(=O)[C@H](CO)NC(=O)[C@H](CCCCN)NC(=O)CNC(=O)[C@H](CCCCN)NC(=O)[C@H](CC(=O)O)NC(=O)[C@H](Cc1c[nH]cn1)NC(=O)[C@H](CC(C)C)NC(=O)[C@H](CC(C)C)NC(=O)[C@H](CCC(N)=O)NC(=O)[C@H](Cc1c[nH]cn1)NC(=O)[C@H](CCC(=O)O)NC(=O)[C@H](CO)NC(=O)[C@@H](NC(=O)[C@H](C)N)C(C)C)C(=O)N[C@@H](CCC(N)=O)C(=O)N[C@@H](CC(=O)O)C(=O)N[C@@H](CC(C)C)C(=O)N[C@@H](CCCNC(=N)N)C(=O)N[C@@H](CCCNC(=N)N)C(=O)N[C@@H](CCCNC(=N)N)C(=O)N[C@@H](CC1CCCCC1)C(=O)N[C@@H](CC(C)C)C(=O)N[C@@H](CC(C)C)C(=O)N[C@@H](CCC(=O)O)C(=O)N[C@@H](CCCCN)C(=O)NC1(C(=O)N[C@@H](CC(C)C)C(=O)NC(C)(C)C(=O)N[C@@H](CCCCN)C(=O)N[C@@H](CC(C)C)C(=O)N[C@@H](Cc2c[nH]cn2)C(=O)N[C@H](C(=O)N[C@@H](C)C(N)=O)[C@@H](C)O)CCCCC1 [[Cha^22, Leu^23,28,31, Glu^25, Lys^26,30, Ahc^27, Aib^29]hPTHrP(1-34)NH2] (H-AVSEHQLLHDKGKSIQDLRRR[Cha]LLEK[Ac6c]L[Aib]KLHTA-NH2)
